This is an account of results in patent publication US9718804B2, “GSK-3 inhibitors” (BRISTOL-MYERS SQUIBB COMPANY, priority 2013, dated 2017).

Assay [1] concerns pTau. Kind of assay: pTau assay (no method described). It is filed as cell-based.
For assay [2], the target named is GSK3β (Homo sapiens, UniProt P49841). In words: GSK3β kinase assay (Caliper LabChip, fluoresceinated peptide substrate). The assay is classed as biochemical. The conditions noted are these: first value of the cell; 250 pM enzyme, 20 uM ATP, 20 hours at room temperature; read-out: GSK3β/α (nM): GSK3β IC50. On the procedure:
(§1) The kinase assay was performed in V-bottom 384-well plates. […] The reaction was incubated at room temperature for 20 hours and terminated by adding 45 μl of 35 mM EDTA to each sample. The reaction mixture was analyzed on the Caliper LabChip3000 (Caliper, Hopkinton, Mass.) by electrophoretic separation of the unphosphorylated substrate and phosphorylated product. […] Compounds were dissolved at 10 mM in dimethylsulfoxide (DMSO) and evaluated at eleven concentrations. IC50 values were derived by non-linear regression analysis.

The target in assay [3] is GSK3α (Homo sapiens, UniProt P49840). Kind of assay: GSK3α kinase assay (Caliper LabChip, fluoresceinated peptide substrate). The assay is classed as biochemical. On the procedure:
as §1

GSK3α, sequence (P49840 whole entry, species assumed): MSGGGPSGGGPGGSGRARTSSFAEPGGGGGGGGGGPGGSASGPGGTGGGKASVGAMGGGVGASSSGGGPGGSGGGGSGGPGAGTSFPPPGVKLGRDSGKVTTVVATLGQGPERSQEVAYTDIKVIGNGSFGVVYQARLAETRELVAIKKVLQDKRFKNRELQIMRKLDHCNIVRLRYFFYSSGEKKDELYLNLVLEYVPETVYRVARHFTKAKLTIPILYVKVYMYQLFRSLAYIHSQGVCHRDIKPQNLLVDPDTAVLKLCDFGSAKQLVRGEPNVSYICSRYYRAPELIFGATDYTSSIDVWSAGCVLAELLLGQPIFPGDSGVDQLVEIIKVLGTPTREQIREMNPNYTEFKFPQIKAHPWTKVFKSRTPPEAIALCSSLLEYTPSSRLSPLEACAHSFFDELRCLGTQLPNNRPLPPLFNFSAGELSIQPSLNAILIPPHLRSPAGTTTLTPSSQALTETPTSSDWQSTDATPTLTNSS
GSK3β, sequence (P49841 whole entry, species assumed): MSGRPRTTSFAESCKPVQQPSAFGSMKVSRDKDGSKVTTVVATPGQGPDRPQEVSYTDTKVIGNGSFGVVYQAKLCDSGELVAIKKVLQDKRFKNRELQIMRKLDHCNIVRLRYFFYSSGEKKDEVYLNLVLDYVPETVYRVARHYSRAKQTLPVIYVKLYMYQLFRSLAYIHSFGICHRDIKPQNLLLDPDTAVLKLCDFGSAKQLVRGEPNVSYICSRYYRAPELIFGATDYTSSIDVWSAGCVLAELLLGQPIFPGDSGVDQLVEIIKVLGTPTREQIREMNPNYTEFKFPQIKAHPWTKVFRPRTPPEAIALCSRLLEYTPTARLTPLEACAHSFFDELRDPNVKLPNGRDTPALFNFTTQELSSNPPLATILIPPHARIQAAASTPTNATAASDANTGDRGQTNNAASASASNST

Turning to `O=C(Nc1cncc(-c2ccccc2F)c1)c1ccnc(Nc2cccc(C(F)(F)F)n2)c1` [Example 134, N-(5-(2-Fluorophenyl)pyridin-3-yl)-2-((6-(trifluoromethyl)pyridin-2-yl)amino)isonicotinamide], the IC50 in assay [1] is 470 nM; in assay [2], 3.9 nM; in assay [3], 1.5 nM.
`O=C(Nc1cnc(F)cc1OCC(F)(F)F)c1ccnc(Nc2ccc(Cl)cn2)c1` [Example 110, 2-((5-Chloropyridin-2-yl)amino)-N-(6-fluoro-4-(2,2,2-trifluoroethoxy)pyridin-3-yl)isonicotinamide]: the figures for the IC50 in assay [1], in assay [2] and in assay [3] were 170 nM, 3.8 nM and 0.51 nM, respectively.
The like results for `NS(=O)(=O)c1ccc(Nc2cc(C(=O)Nc3cncc(-c4ccccc4F)c3)ccn2)nc1` [Example 156, N-(5-(2-Fluorophenyl)pyridin-3-yl)-2-((5-sulfamoylpyridin-2-yl)amino)isonicotinamide] were, in that order, 5600 nM, 3 nM and 1.6 nM.
Regarding `O=C(Nc1cnccn1)c1ccnc(Nc2ccc(C(F)(F)F)cn2)c1` [Example 189, N-(Pyrazin-2-yl)-2-((5-(trifluoromethyl)pyridin-2-yl)amino)isonicotinamide], the IC50 in assay [1] came to 1030 nM; in assay [2] it was 11 nM; in assay [3], 4.3 nM.
Turning to `O=C(Nc1cnccc1N1CCC(F)(F)CC1)c1ccnc(Nc2ccc(C(F)(F)F)cn2)c1` [Example 24, N-(4-(4,4-Difluoropiperidin-1-yl)pyridin-3-yl)-2-((5-(trifluoromethyl)pyridin-2-yl)amino)isonicotinamide], the IC50 in assay [1] amounted to 4.6 nM; in assay [2] it was 0.69 nM; in assay [3] it was 0.49 nM.
Regarding `COc1ccc(Nc2cc(C(=O)Nc3cncc(-c4ccccc4F)c3)ccn2)nc1` [Example 141, N-(5-(2-Fluorophenyl)pyridin-3-yl)-2-((5-methoxylpyridin-2-yl)amino)isonicotinamide], the IC50 in assay [1] turned out to be 680 nM; in assay [2], 3.5 nM; in assay [3], 1.8 nM.
As for `CC(O)(c1cnncc1NC(=O)c1ccnc(Nc2ccc(C(F)(F)F)cn2)c1)C1CC1` (stereo not drawn) [Example 203, N-(5-(1-Cyclopropyl-1-hydroxyethyl)pyridazin-4-yl)-2-((5-(trifluoromethyl)pyridin-2-yl)amino)isonicotinamide], the figures for the IC50 in assay [1], in assay [2] and in assay [3] were 10000 nM, 1.2 nM and 0.94 nM, respectively.
Take `CC[C@@]1(c2cc(Cl)ncc2NC(=O)c2ccnc(Nc3ccc(C(F)(F)F)cn3)c2)OC[C@H](C(F)(F)F)O1` [Example 86, N-(6-Chloro-4-((2R,4R)-2-ethyl-4-(trifluoromethyl)-1,3-dioxolan-2-yl)pyridin-3-yl)-2-((5-(trifluoromethyl)pyridin-2-yl)amino)isonicotinamide]: the figures for the IC50 in assay [1], in assay [2] and in assay [3] were 510 nM, 12 nM and 2.4 nM, respectively.
For `O=C(Nc1cnccc1-c1ccccc1)c1ccnc(Nc2ccc(F)cn2)c1` [Example 8, 2-((5-Fluoropyridin-2-yl)amino)-N-(4-phenylpyridin-3-yl)isonicotinamide], the IC50 was determined as 132 nM in assay [1], 4.1 nM in assay [2] and 1.9 nM in assay [3].
Consider `CC(C)(C)COc1ccncc1NC(=O)c1ccnc(Nc2ccc(C#N)cn2)c1` [Example 25, 2-((5-Cyanopyridin-2-yl)amino)-N-(4-(neopentyloxy)pyridin-3-yl)isonicotinamide], for which the IC50 in assay [1] was 30 nM; in assay [2], 4.3 nM; in assay [3] it was 2 nM.
With `Cc1ccc(Nc2cc(C(=O)Nc3cnccc3-c3ccccc3)ccn2)nc1` [Example 5, 2-((5-Methylpyridin-2-yl)amino)-N-(4-phenylpyridin-3-yl)isonicotinamide], the IC50 came out at 183 nM in assay [1], 0.77 nM in assay [2] and 4.8 nM in assay [3].
In the same order, the values of `O=C(Nc1cnc(Cl)cc1SC1CC1)c1ccnc(Nc2ccc(C(F)(F)F)cn2)c1` [Example 176, N-(6-Chloro-4-(cyclopropylthio)pyridin-3-yl)-2-((5-(trifluoromethyl)pyridin-2-yl)amino)isonicotinamide] are 1100 nM, 11 nM and 7 nM.
As for `Cc1ccnc(Nc2cc(C(=O)Nc3cnccc3-c3ccccc3)ccn2)c1` [Example 6, 2-((4-Methylpyridin-2-yl)amino)-N-(4-phenylpyridin-3-yl)isonicotinamide], the IC50 came out at 164 nM in assay [1], 1.1 nM in assay [2] and 1.3 nM in assay [3].
Consider `O=C(Nc1cn[nH]c1-c1ccccc1)c1ccnc(Nc2ccc(C(F)(F)F)cn2)c1` [Example 205, N-(5-Phenyl-1H-pyrazol-4-yl)-2-((5-(trifluoromethyl)pyridin-2-yl)amino)isonicotinamide], for which the IC50 amounted to 10000 nM in assay [1], 28 nM in assay [2] and 20 nM in assay [3].
For `O=C(Nc1cnc(F)cc1N1CCOCC1)c1ccnc(Nc2ccc(C(F)(F)F)cn2)c1` [Example 73, N-(6-Fluoro-4-morpholinopyridin-3-yl)-2-((5-(trifluoromethyl)pyridin-2-yl)amino)isonicotinamide], the IC50 is 43 nM in assay [1], 1 nM in assay [2] and 0.6 nM in assay [3].
As for `N#Cc1cccc(Nc2cc(C(=O)Nc3cncc(-c4ccccc4F)c3)ccn2)n1` [Example 152, 2-((6-Cyanopyridin-2-yl)amino)-N-(5-(2-fluorophenyl)pyridin-3-yl)isonicotinamide], the IC50 in assay [1] was found to be 260 nM; in assay [2] it was 1.6 nM; in assay [3] it was 0.87 nM.
As for `Cc1cc(C(C)(O)C2CC2)c(NC(=O)c2ccnc(Nc3ccc(C(F)(F)F)cn3)c2)cn1` (stereo not drawn) [Example 107, N-(4-(1-Cyclopropyl-1-hydroxyethyl)-6-methylpyridin-3-yl)-2-((5-(trifluoromethyl)pyridin-2-yl)amino)isonicotinamide], the IC50 was determined as 94 nM in assay [1], 0.92 nM in assay [2] and 0.75 nM in assay [3].
In the case of `O=C(Nc1cnccc1S(=O)(=O)c1ccccc1)c1ccnc(Nc2ccc(C(F)(F)F)cn2)c1` [Example 183, N-(4-(Phenylsulfonyl)pyridin-3-yl)-2-((5-(trifluoromethyl)pyridin-2-yl)amino)isonicotinamide], the IC50 in assay [1] was found to be 200 nM; in assay [2], 2.2 nM; in assay [3] it was 0.75 nM.
Consider `CCOc1ccncc1NC(=O)c1ccnc(Nc2nccc3ccccc23)c1` [Example 12, N-(4-Ethoxypyridin-3-yl)-2-(isoquinolin-1-ylamino)isonicotinamide], for which the IC50 in assay [1] is 5400 nM; in assay [2] it was 5.9 nM; in assay [3] it was 35 nM.
With `COc1cc(C2(C)OCCO2)c(NC(=O)c2ccnc(Nc3ccc(C(F)(F)F)cn3)c2)cn1` [Example 91, N-(6-Methoxy-4-(2-methyl-1,3-dioxolan-2-yl)pyridin-3-yl)-2-((5-(trifluoromethyl)pyridin-2-yl)amino)isonicotinamide], the IC50 in assay [1] amounted to 1200 nM; in assay [2], 3.9 nM; in assay [3], 20 nM.
As to `O=C(Nc1cnccc1-c1ccc(F)cc1C(F)(F)F)c1ccnc(Nc2ccc(C(F)(F)F)cn2)c1` [Example 53, N-(4-(2-Trifluoromethyl-4-fluoro-phenyl)pyridin-3-yl)-2-((5-(trifluoromethyl)pyridin-2-yl)amino)isonicotinamide], the figures for the IC50 in assay [1], in assay [2] and in assay [3] were 8.3 nM, 0.51 nM and 0.57 nM, respectively.
Regarding `CC[C@@]1(c2cc(Cl)ncc2NC(=O)c2ccnc(Nc3ccc(C(F)(F)F)cn3)c2)OC[C@@H](C(F)(F)F)O1` [Example 85, N-(6-Chloro-4-((2R,4S)-2-ethyl-4-(trifluoromethyl)-1,3-dioxolan-2-yl)pyridin-3-yl)-2-((5-(trifluoromethyl)pyridin-2-yl)amino)isonicotinamide], the IC50 is 5500 nM in assay [1], 64 nM in assay [2] and 35 nM in assay [3].
The like results for `O=C(Nc1cnccc1-c1ccccc1)c1ccnc(Nc2ccc(Br)cn2)c1` [Example 63, 2-((5-Bromopyridin-2-yl)amino)-N-(4-phenylpyridin-3-yl)isonicotinamide] were, in that order, 150 nM, 9.3 nM and 3.4 nM.
For the molecule `CC(C)(C)COc1cc(F)ncc1NC(=O)c1ccnc(Nc2ccc(C(F)(F)F)cn2)c1` [Example 75, N-(6-Fluoro-4-(neopentyloxy)pyridin-3-yl)-2-((5-(trifluoromethyl)pyridin-2-yl)amino)isonicotinamide], the results for the IC50 in assay [1], in assay [2] and in assay [3] were 830 nM, 5.1 nM and 2.4 nM, respectively.
Turning to `Cc1cc(C(O)C2CC2)c(NC(=O)c2ccnc(Nc3ccc(C(F)(F)F)cn3)c2)cn1` (stereo not drawn) [Example 106, N-(4-(Cyclopropyl(hydroxy)methyl)-6-methylpyridin-3-yl)-2-((5-(trifluoromethyl)pyridin-2-yl)amino)isonicotinamide], the IC50 in assay [1] stood at 22 nM; in assay [2] it was 0.25 nM; in assay [3], 0.49 nM.
The like results for `O=C(Nc1cnccc1C1(F)COC1)c1ccnc(Nc2ccc(C(F)(F)F)cn2)c1` [Example 45, N-(4-(3-Fluorooxetan-3-yl)pyridin-3-yl)-2-((5-(trifluoromethyl)pyridin-2-yl)amino)isonicotinamide] were, in that order, 150 nM, 17 nM and 11 nM.
